Measurements published in US7063946B2, “Methods, reagents, kits and apparatus for protein function analysis” (Meso Scale Technologies, LLC., priority 2001, dated 2006).

What was measured:
Assay in all cases: Kinase inhibitor profiling, pEY phosphorylation
Format in all cases: biochemical
SRC = molecular target: T1, SRC (Mus musculus, UniProt P05480)
T1 construct: specificity data for proteins generated from a library of eighteen full-length clones; host or cells: rabbit reticulocyte lysate, TnT coupled transcription/translation

PTK2B = molecular target: T2, PTK2B (Homo sapiens, UniProt Q14289)
T2 construct: specificity data for proteins generated from a library of eighteen full-length clones; host or cells: rabbit reticulocyte lysate, TnT coupled in vitro transcription/translation (cell-free)

BMX = molecular target: T3, BMX (Homo sapiens, UniProt P51813)
T3 construct: specificity data for proteins generated from a library of eighteen full-length clones; host or cells: rabbit reticulocyte lysate, TnT coupled in vitro transcription/translation (cell-free)
T3 sequence (P51813 1-675): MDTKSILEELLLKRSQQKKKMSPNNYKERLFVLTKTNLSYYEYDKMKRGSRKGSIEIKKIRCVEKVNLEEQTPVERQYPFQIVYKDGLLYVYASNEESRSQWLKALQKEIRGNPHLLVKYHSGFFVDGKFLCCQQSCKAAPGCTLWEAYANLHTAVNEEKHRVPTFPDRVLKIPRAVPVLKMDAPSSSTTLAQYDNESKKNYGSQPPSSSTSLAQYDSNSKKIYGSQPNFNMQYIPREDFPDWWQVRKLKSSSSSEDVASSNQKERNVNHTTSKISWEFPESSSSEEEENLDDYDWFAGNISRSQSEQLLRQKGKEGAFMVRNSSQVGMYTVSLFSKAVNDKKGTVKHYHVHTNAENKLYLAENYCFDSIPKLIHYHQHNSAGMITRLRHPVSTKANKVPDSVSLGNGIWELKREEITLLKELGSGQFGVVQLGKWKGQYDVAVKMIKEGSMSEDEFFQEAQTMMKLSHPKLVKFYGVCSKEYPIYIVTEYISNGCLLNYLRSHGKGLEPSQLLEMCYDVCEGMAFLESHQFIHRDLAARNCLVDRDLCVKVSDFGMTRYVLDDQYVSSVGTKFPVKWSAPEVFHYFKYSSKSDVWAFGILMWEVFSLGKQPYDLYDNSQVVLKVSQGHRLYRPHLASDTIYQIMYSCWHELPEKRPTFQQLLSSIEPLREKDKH

Epha7 = molecular target: T4, Epha7 (Mus musculus, UniProt Q61772)
T4 construct: autophosphorylation activity from full-length clones Spleen Tyrosine Kinase (SYK) and Eph receptor-A7 (EphA7); host or cells: rabbit reticulocyte lysate, TnT coupled in vitro transcription/translation (cell-free)

Tek = molecular target: T5, Tek (Mus musculus, UniProt Q02858)
T5 construct: specificity data for proteins generated from a library of eighteen full-length clones; host or cells: rabbit reticulocyte lysate, TnT coupled in vitro transcription/translation (cell-free)

HCK = molecular target: T6, HCK (Homo sapiens, UniProt P08631)
T6 construct: specificity data for proteins generated from a library of eighteen full-length clones; host or cells: rabbit reticulocyte lysate, TnT coupled in vitro transcription/translation (cell-free)

CSK = molecular target: T7, CSK (Homo sapiens, UniProt P41240)
T7 construct: specificity data for proteins generated from a library of eighteen full-length clones; host or cells: rabbit reticulocyte lysate, TnT coupled in vitro transcription/translation (cell-free)

SYK = molecular target: T8, SYK (Homo sapiens, UniProt P43405)
T8 construct: autophosphorylation activity from full-length clones Spleen Tyrosine Kinase (SYK) and Eph receptor-A7 (EphA7); host or cells: rabbit reticulocyte lysate, TnT coupled in vitro transcription/translation (cell-free)

T4 sequence (Q61772 28-998): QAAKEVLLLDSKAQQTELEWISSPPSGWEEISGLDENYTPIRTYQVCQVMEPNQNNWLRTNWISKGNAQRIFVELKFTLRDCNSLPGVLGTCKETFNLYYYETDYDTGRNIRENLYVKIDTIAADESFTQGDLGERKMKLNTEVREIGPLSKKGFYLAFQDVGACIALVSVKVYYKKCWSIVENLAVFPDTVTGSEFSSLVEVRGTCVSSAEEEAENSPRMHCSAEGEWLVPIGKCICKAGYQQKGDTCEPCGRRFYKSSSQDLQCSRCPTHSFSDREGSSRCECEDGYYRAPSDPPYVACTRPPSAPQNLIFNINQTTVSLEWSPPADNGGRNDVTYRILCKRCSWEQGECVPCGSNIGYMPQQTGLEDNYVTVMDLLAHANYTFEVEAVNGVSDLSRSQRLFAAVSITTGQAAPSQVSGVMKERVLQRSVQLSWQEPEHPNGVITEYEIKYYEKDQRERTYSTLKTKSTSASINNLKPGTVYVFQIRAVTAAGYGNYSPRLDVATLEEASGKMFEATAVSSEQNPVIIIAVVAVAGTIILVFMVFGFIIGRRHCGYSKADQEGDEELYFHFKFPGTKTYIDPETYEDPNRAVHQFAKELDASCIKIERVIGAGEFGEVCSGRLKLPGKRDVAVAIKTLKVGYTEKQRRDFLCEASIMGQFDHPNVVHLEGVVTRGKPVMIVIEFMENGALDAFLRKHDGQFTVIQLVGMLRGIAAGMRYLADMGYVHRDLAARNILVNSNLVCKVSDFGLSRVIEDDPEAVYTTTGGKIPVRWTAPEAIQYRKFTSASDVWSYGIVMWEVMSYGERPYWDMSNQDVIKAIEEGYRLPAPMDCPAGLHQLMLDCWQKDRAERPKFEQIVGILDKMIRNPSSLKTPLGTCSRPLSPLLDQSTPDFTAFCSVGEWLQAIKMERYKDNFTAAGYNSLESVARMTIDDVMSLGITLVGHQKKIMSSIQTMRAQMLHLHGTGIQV
T7 sequence (P41240 whole entry): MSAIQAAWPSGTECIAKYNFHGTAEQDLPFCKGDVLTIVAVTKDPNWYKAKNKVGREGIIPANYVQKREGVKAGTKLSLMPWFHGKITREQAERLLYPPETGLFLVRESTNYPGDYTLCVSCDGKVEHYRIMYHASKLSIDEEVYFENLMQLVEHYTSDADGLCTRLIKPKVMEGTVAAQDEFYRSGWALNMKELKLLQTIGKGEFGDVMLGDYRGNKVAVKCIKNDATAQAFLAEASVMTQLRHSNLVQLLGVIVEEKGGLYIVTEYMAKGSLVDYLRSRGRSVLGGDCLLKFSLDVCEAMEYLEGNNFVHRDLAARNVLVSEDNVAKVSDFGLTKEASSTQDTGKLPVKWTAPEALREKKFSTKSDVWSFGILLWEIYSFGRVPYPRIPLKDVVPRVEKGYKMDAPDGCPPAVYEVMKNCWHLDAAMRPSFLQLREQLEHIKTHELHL
T5 sequence (Q02858 23-1122): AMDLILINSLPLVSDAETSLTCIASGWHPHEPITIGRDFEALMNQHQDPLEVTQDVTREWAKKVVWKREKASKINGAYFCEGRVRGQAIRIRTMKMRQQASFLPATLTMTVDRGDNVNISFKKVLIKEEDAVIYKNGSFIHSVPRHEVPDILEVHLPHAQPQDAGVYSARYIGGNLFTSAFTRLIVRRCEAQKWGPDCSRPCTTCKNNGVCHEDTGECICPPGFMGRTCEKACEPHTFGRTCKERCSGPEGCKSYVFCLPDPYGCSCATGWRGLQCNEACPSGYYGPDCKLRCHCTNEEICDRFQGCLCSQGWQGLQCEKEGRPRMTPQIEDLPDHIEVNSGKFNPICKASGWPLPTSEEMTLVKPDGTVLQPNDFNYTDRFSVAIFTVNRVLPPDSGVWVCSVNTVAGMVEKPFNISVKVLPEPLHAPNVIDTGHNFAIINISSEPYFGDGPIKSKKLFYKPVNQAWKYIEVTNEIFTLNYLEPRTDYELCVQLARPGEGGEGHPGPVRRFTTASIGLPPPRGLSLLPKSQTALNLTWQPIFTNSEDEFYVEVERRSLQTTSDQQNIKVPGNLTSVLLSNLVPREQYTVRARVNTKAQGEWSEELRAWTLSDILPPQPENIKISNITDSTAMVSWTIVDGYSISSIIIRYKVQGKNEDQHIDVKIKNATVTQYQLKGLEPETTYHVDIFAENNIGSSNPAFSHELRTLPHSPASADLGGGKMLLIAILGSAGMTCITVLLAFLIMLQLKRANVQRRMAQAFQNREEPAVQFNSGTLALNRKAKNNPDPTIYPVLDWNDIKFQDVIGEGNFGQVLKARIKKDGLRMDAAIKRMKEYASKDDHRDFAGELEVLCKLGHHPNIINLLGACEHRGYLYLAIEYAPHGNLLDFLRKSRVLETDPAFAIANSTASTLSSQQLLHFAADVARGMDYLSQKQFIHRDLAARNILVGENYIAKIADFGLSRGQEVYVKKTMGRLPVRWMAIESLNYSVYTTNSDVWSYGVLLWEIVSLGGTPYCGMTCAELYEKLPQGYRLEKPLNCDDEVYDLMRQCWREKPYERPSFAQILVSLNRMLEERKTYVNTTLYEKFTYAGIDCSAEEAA
T6 sequence (P08631 whole entry): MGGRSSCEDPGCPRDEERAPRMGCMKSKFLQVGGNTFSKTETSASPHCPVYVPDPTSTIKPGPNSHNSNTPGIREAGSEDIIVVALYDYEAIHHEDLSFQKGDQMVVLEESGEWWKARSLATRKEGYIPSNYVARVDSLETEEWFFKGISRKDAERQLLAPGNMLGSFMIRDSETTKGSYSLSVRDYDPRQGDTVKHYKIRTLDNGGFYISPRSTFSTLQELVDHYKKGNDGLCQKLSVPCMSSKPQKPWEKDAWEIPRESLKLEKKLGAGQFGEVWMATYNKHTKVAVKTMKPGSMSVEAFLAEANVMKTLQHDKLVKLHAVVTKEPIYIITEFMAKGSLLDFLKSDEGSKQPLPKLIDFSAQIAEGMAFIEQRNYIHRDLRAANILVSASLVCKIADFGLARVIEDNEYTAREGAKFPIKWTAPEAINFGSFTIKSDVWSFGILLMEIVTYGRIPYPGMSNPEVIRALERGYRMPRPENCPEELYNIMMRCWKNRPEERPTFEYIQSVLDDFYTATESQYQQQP
T1 sequence (P05480 whole entry): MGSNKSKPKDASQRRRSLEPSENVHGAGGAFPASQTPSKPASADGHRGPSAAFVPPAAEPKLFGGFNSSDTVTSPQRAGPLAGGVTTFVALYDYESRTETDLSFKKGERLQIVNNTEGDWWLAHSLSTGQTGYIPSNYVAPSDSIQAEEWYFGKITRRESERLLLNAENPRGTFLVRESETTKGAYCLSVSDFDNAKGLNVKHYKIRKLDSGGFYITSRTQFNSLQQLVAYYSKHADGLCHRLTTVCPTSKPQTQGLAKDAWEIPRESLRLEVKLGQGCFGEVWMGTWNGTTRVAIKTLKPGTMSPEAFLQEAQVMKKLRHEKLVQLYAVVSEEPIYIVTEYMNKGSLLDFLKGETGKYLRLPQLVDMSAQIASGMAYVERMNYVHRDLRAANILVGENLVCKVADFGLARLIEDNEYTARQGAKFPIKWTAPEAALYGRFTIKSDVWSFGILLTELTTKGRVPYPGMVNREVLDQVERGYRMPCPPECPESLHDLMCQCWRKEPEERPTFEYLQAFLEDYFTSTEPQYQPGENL
T2 sequence (Q14289 whole entry): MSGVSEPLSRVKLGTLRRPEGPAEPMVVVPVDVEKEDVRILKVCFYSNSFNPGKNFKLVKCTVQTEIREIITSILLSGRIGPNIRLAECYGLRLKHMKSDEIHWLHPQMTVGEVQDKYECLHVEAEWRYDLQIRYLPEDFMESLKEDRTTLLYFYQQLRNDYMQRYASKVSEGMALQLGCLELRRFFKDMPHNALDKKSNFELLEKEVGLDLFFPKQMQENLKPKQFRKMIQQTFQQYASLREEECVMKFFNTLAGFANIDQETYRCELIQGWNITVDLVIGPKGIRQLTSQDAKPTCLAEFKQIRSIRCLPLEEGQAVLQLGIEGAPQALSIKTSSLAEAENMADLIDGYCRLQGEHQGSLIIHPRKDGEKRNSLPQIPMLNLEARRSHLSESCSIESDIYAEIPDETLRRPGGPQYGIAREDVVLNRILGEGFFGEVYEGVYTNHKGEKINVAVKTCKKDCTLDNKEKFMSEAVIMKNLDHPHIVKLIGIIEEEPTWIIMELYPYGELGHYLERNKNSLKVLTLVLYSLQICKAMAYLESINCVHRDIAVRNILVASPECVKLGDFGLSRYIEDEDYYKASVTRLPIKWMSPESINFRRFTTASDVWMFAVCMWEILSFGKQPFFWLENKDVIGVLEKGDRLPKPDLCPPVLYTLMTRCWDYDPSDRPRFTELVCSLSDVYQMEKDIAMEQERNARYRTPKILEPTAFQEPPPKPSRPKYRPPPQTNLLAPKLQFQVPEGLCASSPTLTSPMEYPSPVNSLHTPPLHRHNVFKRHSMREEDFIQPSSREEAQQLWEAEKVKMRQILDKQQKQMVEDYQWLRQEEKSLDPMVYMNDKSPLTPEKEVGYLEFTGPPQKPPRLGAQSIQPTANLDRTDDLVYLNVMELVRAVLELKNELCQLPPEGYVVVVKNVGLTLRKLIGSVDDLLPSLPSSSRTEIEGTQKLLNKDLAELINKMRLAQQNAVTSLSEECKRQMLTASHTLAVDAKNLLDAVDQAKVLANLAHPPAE

Compound: COc1cc2ncnc(Nc3ccc(O)cc3)c2cc1OC [WHI-P131]
- Inhibition specificity towards pEY phosphorylation at 10X IC50, Src (SRC): L (low inhibition (“L”=between 50–75% of the activity remaining))
- Inhibition specificity towards pEY phosphorylation at 10X IC50, PTK2B (PTK2B): L (low inhibition (“L”=between 50–75% of the activity remaining))
- Inhibition specificity towards pEY phosphorylation at 10X IC50, BMX (BMX): L (low inhibition (“L”=between 50–75% of the activity remaining))
- Inhibition specificity towards pEY phosphorylation at 10X IC50, Epha7 (Epha7): L (low inhibition (“L”=between 50–75% of the activity remaining))
- Inhibition specificity towards pEY phosphorylation at 10X IC50, Tek (Tek): L (low inhibition (“L”=between 50–75% of the activity remaining))
- Inhibition specificity towards pEY phosphorylation at 10X IC50, HCK (HCK): L (low inhibition (“L”=between 50–75% of the activity remaining))

Compound: Cc1ccc(-c2nn(C(C)(C)C)c3ncnc(N)c23)cc1 [PP1]
- Inhibition specificity towards pEY phosphorylation at 10X IC50, BMX (BMX): L (low inhibition (“L”=between 50–75% of the activity remaining))

Compound: COC(=O)c1ccc(NCc2cc(O)ccc2O)cc1 [AG-957]
- Inhibition specificity towards pEY phosphorylation at 10X IC50, BMX (BMX): L (low inhibition (“L”=between 50–75% of the activity remaining))
- Inhibition specificity towards pEY phosphorylation at 10X IC50, CSK (CSK): M (medium inhibition (“M”=between 25 to 50% of the activity remaining))
- Inhibition specificity towards pEY phosphorylation at 10X IC50, Tek (Tek): L (low inhibition (“L”=between 50–75% of the activity remaining))

Compound: Cc1cc2ncc(-c3ccc(O)c(O)c3)nc2cc1C [AG-1433]
- Inhibition specificity towards pEY phosphorylation at 10X IC50, Src (SRC): H (high inhibition (“H”=less than 25% of the activity remaining))
- Inhibition specificity towards pEY phosphorylation at 10X IC50, PTK2B (PTK2B): L (low inhibition (“L”=between 50–75% of the activity remaining))
- Inhibition specificity towards pEY phosphorylation at 10X IC50, BMX (BMX): H (high inhibition (“H”=less than 25% of the activity remaining))
- Inhibition specificity towards pEY phosphorylation at 10X IC50, Epha7 (Epha7): L (low inhibition (“L”=between 50–75% of the activity remaining))
- Inhibition specificity towards pEY phosphorylation at 10X IC50, CSK (CSK): M (medium inhibition (“M”=between 25 to 50% of the activity remaining))
- Inhibition specificity towards pEY phosphorylation at 10X IC50, Tek (Tek): M (medium inhibition (“M”=between 25 to 50% of the activity remaining))
- Inhibition specificity towards pEY phosphorylation at 10X IC50, SYK (SYK): M (medium inhibition (“M”=between 25 to 50% of the activity remaining))
- Inhibition specificity towards pEY phosphorylation at 10X IC50, HCK (HCK): M (medium inhibition (“M”=between 25 to 50% of the activity remaining))

Compound: CC(C)(C)c1cc(C=C(C#N)C#N)cc(Br)c1O [AG-1024]
- Inhibition specificity towards pEY phosphorylation at 10X IC50, Tek (Tek): L (low inhibition (“L”=between 50–75% of the activity remaining))
- Inhibition specificity towards pEY phosphorylation at 10X IC50, SYK (SYK): L (low inhibition (“L”=between 50–75% of the activity remaining))

Compound: COc1c(C=O)c(O)cc2c1C(=O)c1ccccc1C2=O [Damnacanthal]
- Inhibition specificity towards pEY phosphorylation at 10X IC50, Src (SRC): H (high inhibition (“H”=less than 25% of the activity remaining))
- Inhibition specificity towards pEY phosphorylation at 10X IC50, PTK2B (PTK2B): H (high inhibition (“H”=less than 25% of the activity remaining))
- Inhibition specificity towards pEY phosphorylation at 10X IC50, BMX (BMX): H (high inhibition (“H”=less than 25% of the activity remaining))
- Inhibition specificity towards pEY phosphorylation at 10X IC50, Epha7 (Epha7): H (high inhibition (“H”=less than 25% of the activity remaining))
- Inhibition specificity towards pEY phosphorylation at 10X IC50, CSK (CSK): H (high inhibition (“H”=less than 25% of the activity remaining))
- Inhibition specificity towards pEY phosphorylation at 10X IC50, Tek (Tek): M (medium inhibition (“M”=between 25 to 50% of the activity remaining))
- Inhibition specificity towards pEY phosphorylation at 10X IC50, SYK (SYK): H (high inhibition (“H”=less than 25% of the activity remaining))
- Inhibition specificity towards pEY phosphorylation at 10X IC50, HCK (HCK): H (high inhibition (“H”=less than 25% of the activity remaining))
